Measurements from US9393271B2, “GHRH agonists for islet cell transplantation and function and the treatment of diabetes” (UNIVERSITY OF MIAMI, priority 2012, dated 2016).
Blank lines part the entries; values can stand above or below the molecule they belong to. Non-standard residues stand in square brackets, D forms with d. Residues, ends and D or L forms follow the SMILES beside them. *: point of attachment. Desaminotyrosyl = O=C(CCc1ccc(O)cc1)*; NMeY = CN[C@@H](Cc1ccc(O)cc1)C(=O)O; Agmatine = N=C(N)NCCCCN*; Nle = CCCC[C@H](N)C(=O)O; Orn = NCCC[C@H](N)C(=O)O; Abu = CC[C@H](N)C(=O)O; GABA = NCCCC(=O)O

Key:
GH level = assay: In vivo endocrine activity (GH release), subcutaneous administration; conditions: rat, s.c.
Description: Subcutaneous Administration. Adult male rats were used and anesthetized with pentobarbital (6 mg/100 g, b.w.), by i.p. injection. […] Blood samples were taken from the jugular vein 5, 15 and/or 30 minutes after the injection. The blood samples were centrifuged, plasma was removed and the GH level was measured by ELISA. The results are summarized in terms of potency in Table 9.

[1] = molecular target: T1, GHRH receptor (human pituitary membrane homogenates) (Homo sapiens, UniProt Q02643); assay: GHRH receptor binding, ligand competition with 125I-labeled JV-1-42 (Table 5); conditions: for Relative affinitiy (Binding potency) vs GHRH: GHRH(1-29) = 1; for Relative affinitiy (Binding potency) vs JI-38: JI-38 = 1
T1 sequence (Q02643 23-423): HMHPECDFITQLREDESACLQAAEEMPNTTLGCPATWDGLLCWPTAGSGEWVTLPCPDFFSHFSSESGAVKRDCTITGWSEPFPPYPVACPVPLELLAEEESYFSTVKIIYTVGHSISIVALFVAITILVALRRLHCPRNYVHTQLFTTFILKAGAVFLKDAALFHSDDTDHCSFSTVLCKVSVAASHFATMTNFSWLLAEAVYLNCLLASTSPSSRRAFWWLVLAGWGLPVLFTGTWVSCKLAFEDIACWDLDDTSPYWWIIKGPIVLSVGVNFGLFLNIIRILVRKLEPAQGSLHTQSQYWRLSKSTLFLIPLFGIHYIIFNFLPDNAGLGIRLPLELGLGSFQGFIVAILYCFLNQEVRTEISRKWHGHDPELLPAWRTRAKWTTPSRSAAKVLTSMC

[2] = molecular target: T1, GHRH receptor (human pituitary membrane homogenates); assay: GHRH receptor binding, ligand competition with 125I-labeled JV-1-42 (Table 7); parameters: Normal human pituitaries were purchased from the National Hormone and Peptide Program; tissue National Hormone and Peptide Program (A. F. Parlow, Harbor-UCLA Medical Center, Torrance, Calif.); host or cells: normal human pituitary, membrane fraction / homogenate; conditions: JI-38 = 1
rat pituitary cells = assay: GH release in superfused rat pituitary cell system; assay type: cell-based; conditions: 1 nM; for GH Response (ng/ml) Average / GH Response (ng/ml) 1 / GH Response (ng/ml) 2 / GH Response (ng/ml) 3: 3-min pulse; for GH Response (ng/ml) Average: average of runs; for GH Response (ng/ml) 1: run 1; for GH Response (ng/ml) 2: run 2; for GH Response (ng/ml) 3: run 3
Description: Growth hormone releasing activity. Growth hormone releasing was assayed by using a superfused rat pituitary cell system as described in S. Vigh and A. V. Schally, Peptides 5, Suppl: 241-347, 1984. The new synthetic peptide analog of hGHRH P20356 and JI-38 (as control) were administered for 3 minutes (1 mL perfusate) at 1 nM concentration as shown below. Fractions of 1 ml are collected and the GH content in each was determined by ELISA.
Pituitary cells from 2 male rats were used for each channel of the superfusion system. The cells were exposed to 3-min pulses of the new GHRH agonists or to JI-38 as standard every 30 min. Outflowing samples of each channel (1 ml) were collected every 3 min, and GH levels were determined by ELISA.

[3] = molecular target: T1, GHRH receptor (human pituitary membrane homogenates); assay: GHRH receptor binding, ligand competition with 125I-labeled [His1,Nle27]hGHRH(1-32)NH2 (Table 6); conditions: GHRH(1-29) = 1
[4] = fraction 1 (P-20356) / 21 (JI-38)
[5] = fraction 2 (P-20356) / 22 (JI-38)
[6] = fraction 3 (P-20356) / 23 (JI-38)
[7] = fraction 4 (P-20356) / 24 (JI-38)
[8] = fraction 5 (P-20356) / 25 (JI-38)

Compound: CCCC[C@H](NC(=O)[C@@H](NC(=O)[C@H](CC(=O)O)NC(=O)[C@H](CCC(N)=O)NC(=O)[C@H](CC(C)C)NC(=O)[C@H](CC(C)C)NC(=O)[C@H](CCCN)NC(=O)[C@H](CCCNC(=N)N)NC(=O)[C@H](C)NC(=O)[C@H](CO)NC(=O)[C@H](CC(C)C)NC(=O)[C@H](CCC(N)=O)NC(=O)[C@H](CC)NC(=O)[C@H](CC(C)C)NC(=O)[C@@H](NC(=O)[C@H](CCCN)NC(=O)[C@H](CCCNC(=N)N)NC(=O)[C@H](Cc1ccc(O)cc1)NC(=O)[C@H](CO)NC(=O)[C@H](CCC(N)=O)NC(=O)[C@@H](NC(=O)[C@H](Cc1ccccc1)NC(=O)[C@@H](NC(=O)[C@H](C)NC(=O)[C@H](CC(=O)O)NC(=O)[C@@H](C)NC(=O)CCc1ccc(O)cc1)[C@@H](C)CC)[C@@H](C)O)C(C)C)[C@@H](C)CC)C(=O)N[C@@H](CC(=O)O)C(=O)NCCCCNC(=N)N [Peptide P-20350, [Dat^1, D-Ala^2, Gln^8, Orn^12, Abu^15, Orn^21, Nle^27, Asp^28, Agm^29]hGHRH(1-29)] (Desaminotyrosyl-[dA]DAIFTQSYR[Orn]VL[Abu]QLSAR[Orn]LLQDI[Nle]D-Agmatine)
Stimulation of growth hormone levels after s.c. administration (comparison in words) (GH level): stimulated greater growth hormone levels than hGHRH or JI-38
Relative affinitiy (Binding potency) vs GHRH [1]: 101.5
Relative affinitiy (Binding potency) vs JI-38 [1]: 42.7
Relative affinitiy (Binding potency) vs JI-38 [2]: 8.37

Compound: CCCC[C@H](NC(=O)[C@@H](NC(=O)[C@H](CC(=O)O)NC(=O)[C@H](CCC(N)=O)NC(=O)[C@H](CC(C)C)NC(=O)[C@H](CC(C)C)NC(=O)[C@H](CCCN)NC(=O)[C@H](CCCNC(=N)N)NC(=O)[C@H](C)NC(=O)[C@H](CO)NC(=O)[C@H](CC(C)C)NC(=O)[C@H](CCC(N)=O)NC(=O)[C@H](CC)NC(=O)[C@H](CC(C)C)NC(=O)[C@@H](NC(=O)[C@H](CCCN)NC(=O)[C@H](CCCNC(=N)N)NC(=O)[C@H](Cc1ccc(O)cc1)NC(=O)[C@H](CO)NC(=O)[C@H](CCC(N)=O)NC(=O)[C@@H](NC(=O)[C@H](Cc1ccccc1)NC(=O)[C@@H](NC(=O)[C@H](C)NC(=O)[C@H](CC(=O)O)NC(=O)[C@H](C)NC(=O)[C@H](Cc1ccc(O)cc1)NC)[C@@H](C)CC)[C@@H](C)O)C(C)C)[C@@H](C)CC)C(=O)N[C@@H](CC(=O)O)C(=O)NCCCCNC(=N)N [Peptide P-20356, [N—Me-Tyr^1, Gln^8, Orn^12, Abu^15, Orn^21, Nle^27, Asp^28, Agm^29]hGHRH(1-29)] (H-[NMeY]ADAIFTQSYR[Orn]VL[Abu]QLSAR[Orn]LLQDI[Nle]D-Agmatine)
Stimulation of growth hormone levels after s.c. administration (comparison in words) (GH level): stimulated greater growth hormone levels than hGHRH or JI-38
Relative affinitiy (Binding potency) vs GHRH [1]: 406.0
Relative affinitiy (Binding potency) vs JI-38 [1]: 171
Relative affinitiy (Binding potency) vs JI-38 [2]: 16.11
GH Response (ng/ml) Average (rat pituitary cells; [4]): 52.45 ng/mL
GH Response (ng/ml) Average (rat pituitary cells; [5]): 337.48 ng/mL
GH Response (ng/ml) Average (rat pituitary cells; [6]): 556.46 ng/mL
GH Response (ng/ml) Average (rat pituitary cells; [7]): 334.99 ng/mL
GH Response (ng/ml) Average (rat pituitary cells; [8]): 197.91 ng/mL
GH Response (ng/ml) 1 (rat pituitary cells; [4]): 49.98 ng/mL
GH Response (ng/ml) 1 (rat pituitary cells; [5]): 310.58 ng/mL
GH Response (ng/ml) 1 (rat pituitary cells; [6]): 491.01 ng/mL
GH Response (ng/ml) 1 (rat pituitary cells; [7]): 399.95 ng/mL
GH Response (ng/ml) 1 (rat pituitary cells; [8]): 200.64 ng/mL
GH Response (ng/ml) 2 (rat pituitary cells; [4]): 54.99 ng/mL
GH Response (ng/ml) 2 (rat pituitary cells; [5]): 325.76 ng/mL
GH Response (ng/ml) 2 (rat pituitary cells; [6]): 602.1 ng/mL
GH Response (ng/ml) 2 (rat pituitary cells; [7]): 270.02 ng/mL
GH Response (ng/ml) 2 (rat pituitary cells; [8]): 195.18 ng/mL
GH Response (ng/ml) 3 (rat pituitary cells; fraction 1): 52.37 ng/mL
GH Response (ng/ml) 3 (rat pituitary cells; fraction 2): 376.11 ng/mL
GH Response (ng/ml) 3 (rat pituitary cells; fraction 3): 576.26 ng/mL
GH-releasing potency in vitro relative to JI-38 (rat pituitary cells; superfused rat pituitary cells): about 3 times

Relative affinitiy (Binding potency) vs GHRH [3]: 1
Relative affinitiy (Binding potency) vs GHRH [1]: 1
Compound: CC[C@H](C)[C@H](NC(=O)[C@H](C)NC(=O)[C@H](CC(=O)O)NC(=O)[C@H](C)NC(=O)[C@@H](N)Cc1ccc(O)cc1)C(=O)N[C@@H](Cc1ccccc1)C(=O)N[C@H](C(=O)N[C@@H](CC(N)=O)C(=O)N[C@@H](CO)C(=O)N[C@@H](Cc1ccc(O)cc1)C(=O)N[C@@H](CCCNC(=N)N)C(=O)N[C@@H](CCCCN)C(=O)N[C@H](C(=O)N[C@@H](CC(C)C)C(=O)NCC(=O)N[C@@H](CCC(N)=O)C(=O)N[C@@H](CC(C)C)C(=O)N[C@@H](CO)C(=O)N[C@@H](C)C(=O)N[C@@H](CCCNC(=N)N)C(=O)N[C@@H](CCCCN)C(=O)N[C@@H](CC(C)C)C(=O)N[C@@H](CC(C)C)C(=O)N[C@@H](CCC(N)=O)C(=O)N[C@@H](CC(=O)O)C(=O)N[C@H](C(=O)N[C@@H](CCSC)C(=O)N[C@@H](CO)C(=O)N[C@@H](CCCNC(=N)N)C(N)=O)[C@@H](C)CC)C(C)C)[C@@H](C)O [GHRH(1-29), hGHRH(1-29)NH2, reference compound]

Relative affinitiy (Binding potency) vs GHRH [1]: 81.2
Relative affinitiy (Binding potency) vs JI-38 [1]: 34.2
Relative affinitiy (Binding potency) vs JI-38 [2]: 5.06
Compound: CCCC[C@H](NC(=O)[C@@H](NC(=O)[C@H](CC(=O)O)NC(=O)[C@H](CCC(N)=O)NC(=O)[C@H](CC(C)C)NC(=O)[C@H](CC(C)C)NC(=O)[C@H](CCCN)NC(=O)[C@H](CCCNC(=N)N)NC(=O)[C@H](C)NC(=O)[C@H](CO)NC(=O)[C@H](CC(C)C)NC(=O)[C@H](CCC(N)=O)NC(=O)[C@H](CC)NC(=O)[C@H](CC(C)C)NC(=O)[C@@H](NC(=O)[C@H](CCCN)NC(=O)[C@H](CCCNC(=N)N)NC(=O)[C@H](Cc1ccc(O)cc1)NC(=O)[C@H](CO)NC(=O)[C@H](CC(N)=O)NC(=O)[C@@H](NC(=O)[C@H](Cc1ccccc1)NC(=O)[C@@H](NC(=O)[C@H](C)NC(=O)[C@H](CC(=O)O)NC(=O)[C@@H](C)NC(=O)CCc1ccc(O)cc1)[C@@H](C)CC)[C@@H](C)O)C(C)C)[C@@H](C)CC)C(=O)N[C@@H](CO)C(=O)N[C@@H](CCCNC(=N)N)C(=O)N[C@@H](CCC(N)=O)C(=O)NCCCC(N)=O [Peptide P-29702, [Dat^1, D-Ala^2, Orn^12, Abu^15, Orn^21, Nle^27, Gln-Gab^30]hGHRH(1-30)NH2] (Desaminotyrosyl-[dA]DAIFTNSYR[Orn]VL[Abu]QLSAR[Orn]LLQDI[Nle]SRQ[GABA]-NH2)
